{"source": "paper PMC8880385", "about": "(Pharmaceuticals, 2022)", "system": "O. volvulus pre-adult L5", "experiment": "O. volvulus pre-adult (Ov L5) motility assay", "assay_type": "cell-based, Onchocerca volvulus", "settings": "Onchocerca volvulus, Day 36 @ 1 µM; 14 days drug then washout", "procedure": "O. volvulus adult male and female worms, which can only be obtained from infected individuals, are not readily accessible for ex vivo studies. Moreover, since there is no small animal model that can maintain infections by O. volvulus, a recently developed in vitro system was used to evaluate the macrofilaricidal effects on pre-adult worms. All compounds except for 04 were tested in this O. volvulus pre-adult/L5 motility and viability assay.\nBriefly, Ov L3 larvae were cultured to the pre-adult/L5 stage in vitro as described by Voronin et al., 2019 [45]. Once larvae reached the L5 stage (after at least 70 days in culture), 8–10 Ov L5 were moved to new transwell inserts in a 24-well plate containing 0.5 mL Ov L4-CMS media seeded with a 3 × 10^4/well Human Umbilical Vein Endothelial Cells (HUVEC) monolayer. Duplicate wells were treated with 1 and/or 10 µM of compound. Ov L5 were exposed to compounds for 14 days (exchanged 50% of media with fresh compound every two days) and then cultured with new media without compound, exchanging 50% of media every 2–3 days, up to day 36. Control Ov L5 were treated with 0.05% DMSO. Concentrations were chosen based on activity in the B. pahangi female motility assay. Motility was assessed visually and ranked on a 0–100% scale every 2–3 days over the course of the assay. At the end of the motility assay, Ov L5 viability was measured by 3-(4,5-dimethylthiazol-2-yl)-2,5-diphenyltetrazolium bromide (MTT) assay. Ov L5 were incubated with 0.1% MTT in PBS at 37 °C for 1 h then visually inspected for blue coloration indicating MTT reduction. Worms were considered dead if <50% of the worm was stained blue, and worms were considered alive if >50% of the worm was stained blue."}
{"smiles": "Cc1ccc2c(ccc(/C=C/c3c(C)nn(-c4ccccc4)c3C)[n+]2C)c1.[I-]", "note": "[Analog 06, 2-[(E)-2-(3,5-dimethyl-1-phenyl-1H-pyrazol-4-yl)ethenyl]-1,6-dimethylquinolin-1-ium iodide]", "values": [{"measurement": "inhibition at 1 µM", "result": "> 90", "unit": "%"}]}
